From PubChem BioAssay (NCI)
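Five concentrations, 48 hours, 96-well plates. At the GI50, growth is halved. Definition used: TGI = concentration required for complete inhibition of growth.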

Assays:
Experiment in all cases: inhibition of tumour cell growth, NCI panel, 48 h
HCT-116 colon = test system: HCT-116 colon
OVCAR-4 ovarian = test system: OVCAR-4 ovarian
NCI-H460 lung = test system: NCI-H460 lung
PC-3 prostate = test system: PC-3 prostate
T-47D breast = test system: T-47D breast
A498 renal = test system: A498 renal
CAKI-1 renal = test system: CAKI-1 renal
MALME-3M melanoma = test system: MALME-3M melanoma
UACC-62 melanoma = test system: UACC-62 melanoma
NCI/ADR-RES ovarian = test system: NCI/ADR-RES ovarian
786-0 renal = test system: 786-0 renal
SF-295 CNS = test system: SF-295 CNS
NCI-H522 lung = test system: NCI-H522 lung
U251 CNS = test system: U251 CNS
HCT-15 colon = test system: HCT-15 colon
IGROV1 ovarian = test system: IGROV1 ovarian
RPMI-8226 leukemia = test system: RPMI-8226 leukemia
MDA-MB-435 = test system: MDA-MB-435
UO-31 renal = test system: UO-31 renal
COLO 205 colon = test system: COLO 205 colon
HL-60(TB) leukemia = test system: HL-60(TB) leukemia
NCI-H23 lung = test system: NCI-H23 lung
HCC-2998 colon = test system: HCC-2998 colon
MDA-MB-231 breast = test system: MDA-MB-231 breast
MOLT-4 leukemia = test system: MOLT-4 leukemia
OVCAR-3 ovarian = test system: OVCAR-3 ovarian
SF-268 CNS = test system: SF-268 CNS
BT-549 breast = test system: BT-549 breast
HT29 colon = test system: HT29 colon

SMILES: COc1ccc(CC(C)=C(c2ccc(OCCN3CCCC3)cc2)c2ccc(OCCN3CCCC3)cc2)cc1
- GI50 (HCT-116 colon): 1.76 µM
- TGI (HCT-116 colon): 5.25 µM
- GI50 (OVCAR-4 ovarian): 3.39 µM
- TGI (OVCAR-4 ovarian): 6.9 µM
- GI50 (NCI-H460 lung): 3.15 µM
- TGI (NCI-H460 lung): 6.45 µM
- GI50 (PC-3 prostate): 2.99 µM
- TGI (PC-3 prostate): 7.25 µM
- GI50 (T-47D breast): 3.13 µM
- TGI (T-47D breast): 7.61 µM
- GI50 (A498 renal): 3.01 µM
- TGI (A498 renal): 6.28 µM
- GI50 (CAKI-1 renal): 4 µM
- TGI (CAKI-1 renal): 7.31 µM
- GI50 (MALME-3M melanoma): 3.57 µM
- TGI (MALME-3M melanoma): 6.81 µM
- GI50 (UACC-62 melanoma): 4.02 µM
- TGI (UACC-62 melanoma): 7.4 µM
- GI50 (NCI/ADR-RES ovarian): 3.7 µM
- TGI (NCI/ADR-RES ovarian): 7.08 µM
- GI50 (786-0 renal): 2.78 µM
- TGI (786-0 renal): 6.05 µM
- GI50 (SF-295 CNS): 4 µM
- TGI (SF-295 CNS): 7.38 µM
- GI50 (NCI-H522 lung): 3.63 µM
- TGI (NCI-H522 lung): 7.6 µM
- GI50 (U251 CNS): 1.81 µM
- TGI (U251 CNS): 5.47 µM
- GI50 (HCT-15 colon): 1.28 µM
- TGI (HCT-15 colon): 4.36 µM
- GI50 (IGROV1 ovarian): 3.78 µM
- TGI (IGROV1 ovarian): 7.16 µM
- GI50 (RPMI-8226 leukemia): 2.12 µM
- TGI (RPMI-8226 leukemia): 9.37 µM
- GI50 (MDA-MB-435): 0.721 µM
- TGI (MDA-MB-435): 2.57 µM
- GI50 (UO-31 renal): 2.79 µM
- TGI (UO-31 renal): 5.75 µM
- GI50 (COLO 205 colon): 0.904 µM
- TGI (COLO 205 colon): 4.55 µM
- GI50 (HL-60(TB) leukemia): 4.14 µM
- TGI (HL-60(TB) leukemia): 8.53 µM
- GI50 (NCI-H23 lung): 3.49 µM
- TGI (NCI-H23 lung): 6.76 µM
- GI50 (HCC-2998 colon): 2.46 µM
- TGI (HCC-2998 colon): 5.38 µM
- GI50 (MDA-MB-231 breast): 3.25 µM
- TGI (MDA-MB-231 breast): 6.44 µM
- GI50 (MOLT-4 leukemia): 2.07 µM
- TGI (MOLT-4 leukemia): 5.96 µM
- GI50 (OVCAR-3 ovarian): 2.68 µM
- TGI (OVCAR-3 ovarian): 5.59 µM
- GI50 (SF-268 CNS): 3.24 µM
- TGI (SF-268 CNS): 6.7 µM
- GI50 (BT-549 breast): 3.04 µM
- TGI (BT-549 breast): 6.35 µM
- GI50 (HT29 colon): 0.84 µM
